Data reported in patent US20090325952A1, “PYRAZOLO[3,4-B]PYRIDINE COMPOUNDS, AND THEIR USE AS PDE4 INHIBITORS” (Glaxo Group Limited, priority 2006, published 2009).
Where a name gives a salt, the structure may show the parent alone.

Molecular target: T1, PDE4B (human recombinant) (Homo sapiens, UniProt Q07343)
T1 construct: made in house; host or cells: Saccharomyces cerevisiae strain GL62 (PDE-deficient yeast)
Assay: Inhibition of PDE4B activity (FP and/or SPA assay)
Format: biochemical
Details: one reading or average of n readings; for IC50: generally FP assay, read-out: PDE4B pIC50 (generally in FP assay) (±about 0.5) (converted)
Excerpt: Human recombinant PDE4B, in particular the 2B splice variant thereof (HSPDE4B2B), is disclosed in WO 94/20079 and also M. M. McLaughlin et al., “A low Km, rolipram-sensitive, cAMP-specific phosphodiesterase from human brain: cloning and expression of cDNA, biochemical characterisation of recombinant protein, and tissue distribution of mRNA”, J. Biol. Chem., 1993, 268, 6470-6476. For example, in Example 1 of WO 94/20079, human recombinant PDE4B is described as being expressed in the PDE-deficient yeast Saccharomyces cerevisiae strain GL62, e.g. after induction by addition of 150 uM CuSO4, and 100,000×g supernatant fractions of yeast cell lysates are described for use in the harvesting of PDE4B enzyme.
The ability of compounds to inhibit catalytic activity at PDE4B or 4D (human recombinant), PDE3 (from bovine aorta), PDE5 (human recombinant) or PDE6 (from bovine retina) can optionally be determined by Scintillation Proximity Assay (SPA) in a 96-well format.
Test compounds (as a solution in DMSO, suitably about 2 microlitre (ul) volume of DMSO solution) are preincubated at ambient temperature (room temperature, e.g. 19-23° C.) in Wallac Isoplates (code 1450-514) with PDE enzyme in 50 mM Tris-HCl buffer pH 7.5, 8.3 mM MgCl2, 1.7 mM EGTA, 0.05% (w/v) bovine serum albumin for 10-30 minutes (usually 30 minutes). The enzyme concentration is adjusted so that no more than 20% hydrolysis of the substrate defined below occurs in control wells without compound, during the incubation. For the PDE3, PDE4B and PDE4D assays, [5′,8-^3H]Adenosine 3′,5′-cyclic phosphate (Amersham Pharmacia Biotech, code TRK.559; or Amersham Biosciences UK Ltd, Pollards Wood, Chalfont St Giles, Buckinghamshire HP8 4SP, UK) is added to give 0.05uCi per well and about 10 nM final concentration. For the PDE5 and PDE6 assays, [8^−3H]Guanosine 3′,5′-cyclic phosphate (Amersham Pharmacia Biotech, code TRK.392) is added to give 0.05uCi per well and about 36 nM final concentration. Plates containing assay mixture, suitably approx. 100 ul volume of assay mixture, are mixed on an orbital shaker for 5 minutes and incubated at ambient temperature for 1 hour. Phosphodiesterase SPA beads (Amersham Pharmacia Biotech, code RPNQ 0150) are added (about 1 mg per well) to terminate the assay. Plates are sealed and shaken and allowed to stand at ambient temperature for 35 minutes to 1 hour (suitably 35 minutes) to allow the beads to settle. Bound radioactive product is measured using a WALLAC TRILUX 1450 Microbeta scintillation counter. For inhibition curves, 10 concentrations (e.g. 1.5 nM-30 uM) of each compound are assayed. Curves are analysed using ActivityBase and XLfit (ID Business Solutions Limited, 2 Ocean Court, Surrey Research Park, Guildford, Surrey GU2 7QB, United Kingdom) Results are expressed as pIC50 values.
The ability of compounds to inhibit catalytic activity at PDE4B (human recombinant) or PDE4D (human recombinant) can optionally be determined by IMAP Fluorescence Polarisation (FP) assay (IMAP Explorer kit, available from Molecular Devices Corporation, Sunnydale, Calif., USA; Molecular Devices code: R8062) in 384-well format.
The IMAP FP assay is able to measure PDE activity in an homogenous, non-radioactive assay format. The FP assay uses the ability of immobilised trivalent metal cations, coated onto nanoparticles (tiny beads), to bind the phosphate group of Fl-AMP that is produced on the hydrolysis of fluorescein-labelled (Fl) cyclic adenosine mono-phosphate (Fl-cAMP) to the non-cyclic Fl-AMP form. […] Binding of Fl-AMP product to the beads (coated with the immobilised trivalent cations) slows the rotation of the bound Fl-AMP and leads to an increase in the fluorescence polarisation ratio of parallel to perpendicular light. Inhibition of the PDE reduces/inhibits this signal increase. […]

T1 sequence (Q07343 1-564 isoform Q07343-2): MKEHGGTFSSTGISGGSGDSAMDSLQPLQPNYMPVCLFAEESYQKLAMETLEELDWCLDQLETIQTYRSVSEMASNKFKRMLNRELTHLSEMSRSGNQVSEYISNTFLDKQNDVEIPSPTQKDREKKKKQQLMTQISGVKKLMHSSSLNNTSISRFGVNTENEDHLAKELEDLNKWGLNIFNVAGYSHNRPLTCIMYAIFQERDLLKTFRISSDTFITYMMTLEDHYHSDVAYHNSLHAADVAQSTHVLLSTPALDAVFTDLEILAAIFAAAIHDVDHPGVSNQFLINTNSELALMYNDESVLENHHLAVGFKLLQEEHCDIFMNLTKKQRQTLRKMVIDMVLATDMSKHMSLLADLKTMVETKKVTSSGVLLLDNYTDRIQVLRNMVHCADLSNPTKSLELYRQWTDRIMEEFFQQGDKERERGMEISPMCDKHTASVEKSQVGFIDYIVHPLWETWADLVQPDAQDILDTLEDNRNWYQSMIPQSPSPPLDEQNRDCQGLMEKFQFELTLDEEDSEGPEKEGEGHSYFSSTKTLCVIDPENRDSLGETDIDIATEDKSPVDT

| IC50 [pM] | SMILES | PDE4B pIC50 (generally in FP assay) (±about 0.5) |
| --- | --- | --- |
| ~50.1 | CCc1nc2c(cnn2CC)c(NC2CCOCC2)c1CNC(=O)c1ccc(NC(=O)CCCCCCCN(C)CCO)cc1 [Example 1A1, N-{[1,6-Diethyl-4-(tetrahydro-2H-pyran-4-ylamino)-1H-pyrazolo[3,4-b]pyridin-5-yl]methyl}-4-({8-[(2-hydroxyethyl)(methyl)amino]octanoyl}amino)benzamide dihydrochloride] |  |
| ~63.1 | CCc1nc2c(cnn2CC)c(NC2CCOCC2)c1CNC(=O)c1ccc(NC(=O)CCCCCCCN(C)CCO)cc1 [Example 1B, N-{[1,6-diethyl-4-(tetrahydro-2H-pyran-4-ylamino)-1H-pyrazolo[3,4-b]pyridin-5-yl]methyl}-4-({8-[(2-hydroxyethyl)(methyl)amino]octanoyl}amino)benzamide] |  |
|  | CCc1nc2c(cnn2CC)c(NC2CCN(C(N)=O)CC2)c1CNC(=O)c1ccc(NC(=O)CCCCCCCN(C)CCO)cc1.O=C(O)C(F)(F)F [Example 9, 4-({1,6-diethyl-5-[({[4-({8-[(2-hydroxyethyl)(methyl)amino]octanoyl}amino)phenyl]carbonyl}amino)methyl]-1H-pyrazolo[3,4-b]pyridin-4-yl}amino)-1-piperidinecarboxamide trifluoroacetate (salt)] | about 10.3 (n = 1) |
| ~39.8 | CCc1nc2c(cnn2CC)c(NC2CCOCC2)c1CNC(=O)c1ccc(CCCCOCCCCN(C)CCO)cc1 [Example 19, formate salt of N-{[1,6-diethyl-4-(tetrahydro-2H-pyran-4-ylamino)-1H-pyrazolo[3,4-b]pyridin-5-yl]methyl}-4-[4-({4-[(2-hydroxyethyl)(methyl)amino]butyl}oxy)butyl]benzamide] |  |
| ~100 | CCc1nc2c(cnn2CC)c(NC2CCN(C(N)=O)CC2)c1CNC(=O)c1ccc(CCCCOCCCCN2CCOCC2)cc1 [Example 23A, 4-({1,6-diethyl-5-[({[4-(4-{[4-(4-morpholinyl)butyl]oxy}butyl)phenyl]carbonyl}amino)methyl]-1H-pyrazolo[3,4-b]pyridin-4-yl}amino)-1-piperidinecarboxamide] |  |
| ~251 | CCn1ncc2c(NC3CCOCC3)c(CNC(=O)c3ccc(NC(=O)CCCCCCCN(C)CCO)cc3)cnc21 [Example 26, Formate salt of N-{[1-ethyl-4-(tetrahydro-2H-pyran-4-ylamino)-1H-pyrazolo[3,4-b]pyridin-5-yl]methyl}-4-({8-[(2-hydroxyethyl)(methyl)amino]octanoyl}amino)benzamide] |  |
